Measured values published in patent US20110269626A1, “HERBICIDAL COMPOSITIONS COMPRISING HPPD-INHIBITORS AND METHODS OF CONTROLLING WEEDS IN TURFGRASSES” (priority 2008, published 2011).

How the values were obtained:
Assay type in all cases: in vivo
warm season turfgrasses = assay: Safening of liquid mesotrione formulation on warm season turfgrasses (conclusion from Tables 1 and 2); conditions: safener applied in combination with a liquid formulation of mesotrione to warm season turfgrasses
From the text: (§1) A liquid formulation of mesotrione (Callisto®) was applied to bermudagrass (Cynodon dactylon×C. dactylon) and zoysia grass (Zoysia matrella) by spray application, with and without safeners, at various rates as show in the table below. Assessments were made at 7, 14 and 21 days after application, to determine percentage growth inhibition, an percentage toxicity (chlorosis and/or burning).

[1] = system: zoysia grass (Zoysia matrella); assay: Spray application of liquid mesotrione formulation (Callisto) with and without safeners to zoysia grass; percentage toxicity (chlorosis and/or burning)
From the text: as §1

[2] = system: bermudagrass (Cynodon dactylon×C. dactylon); assay: Spray application of liquid mesotrione formulation (Callisto) with and without safeners to bermudagrass; percentage toxicity (chlorosis and/or burning)
From the text: as §1

[3] = herbicide 140 g ai/ha, safener 70 g ai/ha or none, 7 DAA
[4] = herbicide 140 g ai/ha, safener 70 g ai/ha or none, 14 DAA
[5] = herbicide 140 g ai/ha, safener 70 g ai/ha or none, 21 DAA
[6] = herbicide 280 g ai/ha, safener 140 g ai/ha or none, 7 DAA
[7] = herbicide 280 g ai/ha, safener 140 g ai/ha or none, 14 DAA
[8] = herbicide 280 g ai/ha, safener 140 g ai/ha or none, 21 DAA

| Structure (SMILES) | safening (warm season turfgrasses) | Percentage toxicity [1, 3] [%] | Percentage toxicity [1, 4] [%] | Percentage toxicity [1, 5] [%] | Percentage toxicity [1, 6] [%] | Percentage toxicity [1, 7] [%] | Percentage toxicity [1, 8] [%] | Percentage toxicity [2, 3] [%] | Percentage toxicity [2, 4] [%] | Percentage toxicity [2, 5] [%] | Percentage toxicity [2, 6] [%] | Percentage toxicity [2, 7] [%] | Percentage toxicity [2, 8] [%] |
| --- | --- | --- | --- | --- | --- | --- | --- | --- | --- | --- | --- | --- | --- |
| CNC(=O)Nc1ccc(S(=O)(=O)NC(=O)c2ccccc2OC)cc1 [Formula IV] | Particularly good safening | – | – | – | – | – | – | – | – | – | – | – | – |
| CS(=O)(=O)c1ccc(C(=O)C2C(=O)CCCC2=O)c([N+](=O)[O-])c1 [Mesotrione, 2-(2′-nitro-4′-methylsulphonylbenzoyl)-1,3-cyclohexanedione] | – | 10 | 40 | 50 | 15 | 50 | 70 | 30 | 10 | 20 | 60 | 50 | 50 |
